Tests used:
Type in all cases: biochemical
MAGL = target: T1, MAGL (Homo sapiens, UniProt Q99685); assay: In vitro competitive activity-based protein profiling (FP-Rh or HT-01 probe, gel-based); set-up: IC50 MGLL PC3 (Human, μM) / IC50 MGLL PFC (Human, μM): scale not given here; conditions: for IC50 MGLL PC3 (Human, μM) / % Inh MGLL PC3 (Human, μM): PC3 cell proteome; for % Inh MGLL PC3 (Human, μM) / % Inh MGLL PFC (Human, μM): concentration not given (μM); for % Inh MGLL PFC (Human, μM): prefrontal cortex (PFC) proteome
T1 construct: Proteomes (human prefrontal cortex or cell membrane fractions); from tissue
T1 sequence (Q99685 1-303): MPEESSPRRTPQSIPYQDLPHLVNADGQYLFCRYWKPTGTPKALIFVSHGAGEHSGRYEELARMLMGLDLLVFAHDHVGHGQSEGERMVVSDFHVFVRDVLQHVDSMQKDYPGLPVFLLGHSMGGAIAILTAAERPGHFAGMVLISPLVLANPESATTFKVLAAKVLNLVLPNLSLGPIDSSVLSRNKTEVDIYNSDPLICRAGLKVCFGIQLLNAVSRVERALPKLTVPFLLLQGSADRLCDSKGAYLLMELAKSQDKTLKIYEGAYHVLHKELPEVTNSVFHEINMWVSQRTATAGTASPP
Procedure: (§1) In Vitro Competitive Activity-Based Protein Profiling.
(§2) Proteomes (human prefrontal cortex or cell membrane fractions) (50 μL, 1.0 mg/mL total protein concentration) were preincubated with varying concentrations of inhibitors at 37° C. After 30 min, FP-Rh or HT-01 (1.0 μL, 50 μM in DMSO) was added and the mixture was incubated for another 30 min at room temperature. Reactions were quenched with SDS loading buffer (15 μL-4×) and run on SDS-PAGE.

ABHD6 = target: T2, ABHD6 (Mus musculus, UniProt Q8R2Y0); assay: In vitro competitive activity-based protein profiling, mouse brain proteome (ABHD6); conditions: mouse brain proteome; concentration not given (μM)
T2 construct: Brain; from tissue; host or cells: mouse brain proteome
T2 sequence (Q8R2Y0 1-336): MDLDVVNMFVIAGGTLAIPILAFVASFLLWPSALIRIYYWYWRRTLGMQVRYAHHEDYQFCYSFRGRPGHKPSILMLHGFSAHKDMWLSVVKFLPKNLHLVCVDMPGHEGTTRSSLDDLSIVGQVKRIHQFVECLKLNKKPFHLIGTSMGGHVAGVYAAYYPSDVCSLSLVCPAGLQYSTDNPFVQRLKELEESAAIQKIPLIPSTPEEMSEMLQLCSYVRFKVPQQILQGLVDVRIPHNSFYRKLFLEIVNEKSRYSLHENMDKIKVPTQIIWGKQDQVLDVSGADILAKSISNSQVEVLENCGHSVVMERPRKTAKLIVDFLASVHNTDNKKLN
Procedure: [The source words this procedure for another target and reports this target under the same test.] as §1, §2

MGLL = target: T3, MGLL (Mus musculus, UniProt O35678); assay: In vitro competitive activity-based protein profiling, mouse brain proteome (MGLL); conditions: concentration not given (μM)
T3 construct: Brain; from tissue; host or cells: mouse brain proteome
T3 sequence (O35678 1-303): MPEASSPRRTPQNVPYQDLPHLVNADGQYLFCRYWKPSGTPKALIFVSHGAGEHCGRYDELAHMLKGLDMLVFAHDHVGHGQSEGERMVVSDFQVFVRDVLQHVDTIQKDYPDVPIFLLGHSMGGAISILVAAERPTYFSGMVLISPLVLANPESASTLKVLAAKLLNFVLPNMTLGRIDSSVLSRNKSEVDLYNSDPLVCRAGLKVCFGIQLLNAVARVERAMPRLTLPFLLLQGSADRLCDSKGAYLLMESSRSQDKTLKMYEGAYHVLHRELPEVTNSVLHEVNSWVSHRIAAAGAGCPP

CC1(OCc2cc(CN3CCC(C(=O)O)CC3)cc(C(F)(F)F)c2)CCN(C(=O)OC(C(F)(F)F)C(F)(F)F)CC1 [Example 25, 1-(3-(((1-(((1,1,1,3,3,3-Hexafluoropropan-2-yl)oxy)carbonyl)-4-methylpiperidin-4-yl)oxy)methyl)-5-(trifluoromethyl)benzyl)piperidine-4-carboxylic acid]
IC50 MGLL PC3 (Human, μM) (MAGL): * * * | % Inh MGLL PC3 (Human, μM) (MAGL): ### (### is ≥75%) | % Inh ABHD6 Brain (Mouse, μM) (ABHD6): ### (### is ≥75%) | % Inh MGLL Brain (Mouse, μM) (MGLL): ### (### is ≥75%)

CN(Cc1ccc(Cl)cc1C1(C(=O)O)CCCC1)C1(C)CCN(C(=O)OC(C(F)(F)F)C(F)(F)F)CC1 [Example 142, 1-(5-Chloro-2-{[(1-{[(1,1,1,3,3,3-hexafluoropropan-2-yl)oxy]carbonyl}-4-methylpiperidin-4-yl)(methyl)amino]methyl}phenyl)cyclopentane-1-carboxylic acid]
% Inh MGLL PC3 (Human, μM) (MAGL): ### (### is ≥75%) | % Inh ABHD6 Brain (Mouse, μM) (ABHD6): # (# is ≤25%) | % Inh MGLL Brain (Mouse, μM) (MGLL): ### (### is ≥75%)

CN(Cc1cccc(Cl)c1C1(C(=O)O)CCCC1)C1(C)CCN(C(=O)OC(C(F)(F)F)C(F)(F)F)CC1 [Example 9, 1-(2-Chloro-6-(((1-(((1,1,1,3,3,3-hexafluoropropan-2-yl)oxy)carbonyl)-4-methylpiperidin-4-yl)(methyl)amino)methyl)phenyl)cyclopentane-1-carboxylic acid]
IC50 MGLL PC3 (Human, μM) (MAGL): * * * | % Inh MGLL PC3 (Human, μM) (MAGL): ### (### is ≥75%) | % Inh ABHD6 Brain (Mouse, μM) (ABHD6): # (# is ≤25%) | % Inh MGLL Brain (Mouse, μM) (MGLL): ### (### is ≥75%)

CC(C)(C#Cc1c(Cl)cccc1CN1CCCC12CCN(C(=O)OC(C(F)(F)F)C(F)(F)F)CC2)C(=O)O [Example 1, 4-(2-Chloro-6-((8-(((1,1,1,3,3,3-hexafluoropropan-2-yl)oxy)carbonyl)-1,8-diazaspiro[4.5]decan-1-yl)methyl)phenyl)-2,2-dimethylbut-3-ynoic acid]
% Inh MGLL PC3 (Human, μM) (MAGL): ### (### is ≥75%) | % Inh ABHD6 Brain (Mouse, μM) (ABHD6): # (# is ≤25%) | % Inh MGLL Brain (Mouse, μM) (MGLL): ### (### is ≥75%)

O=C(OC(C(F)(F)F)C(F)(F)F)N1CCC2(CC1)CCN(C(=O)c1ccc(C(F)(F)F)c(Cl)c1)C2 [Example 109, 1,1,1,3,3,3-Hexafluoropropan-2-yl 2-(3-chloro-4-(trifluoromethyl)benzoyl)-2,8-diazaspiro[4.5]decane-8-carboxylate]
% Inh MGLL PFC (Human, μM) (MAGL): ### (### is ≥75%) | % Inh ABHD6 Brain (Mouse, μM) (ABHD6): ### (### is ≥75%) | % Inh MGLL Brain (Mouse, μM) (MGLL): ### (### is ≥75%)

CN(Cc1cc(N2CCOC(C)(C(=O)O)C2)cc(C(F)(F)F)c1)C1(C)CCN(C(=O)OC(C(F)(F)F)C(F)(F)F)CC1 (centres unmarked) [Example 139, 4-(3-(((1-(((1,1,1,3,3,3-Hexafluoropropan-2-yl)oxy)carbonyl)-4-methylpiperidin-4-yl)(methyl)amino)methyl)-5-(trifluoromethyl)phenyl)-2-methylmorpholine-2-carboxylic acid]
% Inh MGLL PFC (Human, μM) (MAGL): ### (### is ≥75%) | % Inh ABHD6 Brain (Mouse, μM) (ABHD6): ## (## is between 25 and 75%) | % Inh MGLL Brain (Mouse, μM) (MGLL): ### (### is ≥75%)

CN(Cc1ccc(Cl)cc1N1CCC(C(=O)O)CC1)C1(C)CCN(C(=O)OC(C(F)(F)F)C(F)(F)F)CC1 [Example 135, l-(5-Chloro-2-(((1-(((1,1,1,3,3,3-hexafluoropropan-2-yl)oxy)carbonyl)-4-methylpiperidin-4-yl)(methyl)amino)methyl)phenyl)piperidine-4-carboxylic acid]
% Inh MGLL PC3 (Human, μM) (MAGL): ### (### is ≥75%) | % Inh ABHD6 Brain (Mouse, μM) (ABHD6): ### (### is ≥75%) | % Inh MGLL Brain (Mouse, μM) (MGLL): ### (### is ≥75%)

O=C(O)CN1CCC2(CC1)CCN(c1cc(C(F)(F)F)ccc1CN1CCCC13CCN(C(=O)OC(C(F)(F)F)C(F)(F)F)CC3)C2 [Example 154, 2-(2-(2-((8-(((1,1,1,3,3,3-Hexafluoropropan-2-yl)oxy)carbonyl)-1,8-diazaspiro[4.5]decan-1-yl)methyl)-5-(trifluoromethyl)phenyl)-2,1-diazaspiro[4.5]decan-8-yl)acetic acid]
% Inh MGLL PFC (Human, μM) (MAGL): ### (### is ≥75%) | % Inh ABHD6 Brain (Mouse, μM) (ABHD6): # (# is ≤25%) | % Inh MGLL Brain (Mouse, μM) (MGLL): ### (### is ≥75%)
